Measurements: patent US5212166A, “Unsaturated 17β-subsituted 3-carboxy steroids” (Farmitalia Carlo Erba S.r.l., priority 1991, dated 1993)

Target: T1, human prostatic 5α-reductase (Homo sapiens, UniProt P31213)
T1 construct: from homogenates of human benign prostatic hypertrophyc tissue as the enzyme source; from tissue; host or cells: human benign prostatic hypertrophic tissue, particulate fraction (nuclei, microsomes and mitochondria)
T1 sequence (P31213 1-254): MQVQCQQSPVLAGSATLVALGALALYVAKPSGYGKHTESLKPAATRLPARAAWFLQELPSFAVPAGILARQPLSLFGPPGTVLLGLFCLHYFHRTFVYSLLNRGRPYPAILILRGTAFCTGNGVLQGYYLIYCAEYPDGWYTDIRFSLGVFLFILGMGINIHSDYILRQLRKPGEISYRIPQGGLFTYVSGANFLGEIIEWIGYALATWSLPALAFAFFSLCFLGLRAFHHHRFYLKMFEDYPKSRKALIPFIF
Assay: Inhibition of 5α-reductase in vitro, particulate fraction of human benign prostatic hypertrophic tissue homogenate
Format: biochemical
Settings: 1 μM [4-14C]testosterone, 5 mM NADPH, pH 5.5, 30 min at 37° C., read-out: concentration producing 50% inhibition on human prostatic 5α-reductase (IC50)
Procedure: For example, the inhibitory effect of the compounds of the invention on 5α-reductase was determined in vitro, according to the test procedure reported herebelow.
Inhibition of 5α-reductase was evaluated using the particulate fraction (containing nuclei, microsomes and mitochondria) from homogenates of human benign prostatic hypertrophyc tissue as the enzyme source.
The particulate fraction was prepared centrifuging prostate homogenate at 140,000 × g.
The resulting pellet, washed several times, was resuspended in buffer and stored at -80° C. in aliquots containing 10 mg protein/ml.
The assay for 5α-reductase was done in a final volume of 0.5 ml, containing 1 mM dithiothreitol, 40 mM TRIS-HCl buffer pH 5.5, 5 mM NADPH, 1 μM [4-^14 C]testosterone, 0.3 mg protein of the prostate particulate fraction and various concentrations of the inhibitors. […] Radioactivity on the plate was scanned and analyzed from quantitative plots printed by a TLC-analizer (Berthold). The fractional 5α-reduction of testosterone was calculated by relating the ^14 C-radioactivity in the 5α-reduced metabolites 5α-dihydrotestosterone, 3α- and 3β-androstanediols) regions to the total radioactivity in the testosterone and 5α-reduced metabolites regions. […]

CC(C)NC(=O)N(C(=O)[C@H]1CC[C@H]2[C@@H]3CC=C4C=C(C(=O)O)CC[C@]4(C)[C@H]3CC[C@]12C)C(C)C [17β-[N-isopropyl-N-(N-isopropylcarbamoyl)carbamoyl]androsta-3,5-diene-3-carboxylic acid]
IC50: 3 nM
